In patent US20260028334A1, “N-(3-(BENZO[B]THIOPHENE-2-CARBOXAMIDO)-PHENYL)-2,3-DIHYDROBENZO[B][1,4]DIOXINE-6-CARBOXAMIDE DERIVATIVES AND RELATED COMPOUNDS AS LACTATE/ATP PRODUCTION INHIBITORS FOR THE TREATMENT OF CANCER” (WMT Aktiengesellschaft, priority 2022, published 2026):

Experiments:
Format in all cases: cell-based
Panc02 and SKOV3 cells [1] = assay: Assay for inhibition of ATP production (FIGS. 8A and 8B); conditions: 48 hours treatment, 1.5 to 10000 nM
Experimental: (§1) The assay determines the amount of ATP in cells in culture.
(§2) Cells were plated at 4,000 per well in 96-well plate in a medium of high glucose DMEM (PAN) supplemented with 10% FBS (PAN), 2 mM glutamine-alanine (PAN), 2 mM pyruvate (Sigma) and 10 mL/L penicillin-streptomycin and grown at 37° C. in 0.5% O2, 5% CO2 and 75% humidity. For hypoxia, cells were grown and treated in the Whitley H35 Hypoxystation (Don Whitley Scientific) at 37° C. in 0.5% O2, 5% CO2 and 75% humidity. The next day, cells were induced with test compounds (FIG. 1: compounds of examples 3/16, 3/8, 10 at 10000, 3333, 1111, 370, 123, 41, 14, 5 and 1.5 nM; FIGS. 8A and 8B: compounds of example 3/19, 30 and 30/2 at 10000, 3333, 1111, 370, 123, 41, 14, 5 and 1.5 nM), as well as with vehicle (DMSO) only, for 48 hours. After this time, the medium was removed from the cells and intracellular ATP levels were determined using the Promega CellTiter-Glo 2.0 assay protocol (Promega, G9241). To estimate the effect of compounds on the ATP production, sample values were compared to the values of DMSO only. IC50 values were generated by plotting the luciferase counts against compound concentration.

[2] = tested on: HeLa, 4T1, LLC1, A549, MDA-MB-231 and MiaPaCa2 cells; assay: Assay for inhibition of ATP production (FIG. 1); conditions: 48 hours treatment, 1.5 to 10000 nM
Experimental: as §1, §2

[3] = tested on: HeLa cell line expressing GFP-LC3; assay: Determination of autophagic flux; conditions: HeLa GFP-LC3 reporter cells, 24 hours of treatment, flow cytometry, FIG. 6
Description: A HeLa cell line stably expressing an artificial protein construct consisting of Green Fluorescent Protein (GFP) as an N-terminal fusion to the human full-length LC3 protein, placed in front of a Red Fluorescent Protein (RFP) as an N terminal fusion to human LC3 lacking its C-terminal Glycine residue (LC3DG), was used to determine autophagic flux (Kaizuka et al., Mol. Cell (2016) 17 835-849) This construct is cleaved in cells by ATG4 at the C-terminus of the full-length LC3 protein, whereupon the GFP-LC3 fragment becomes conjugated to phosphatidyl ethanolamine. The RFP-LC3DG cannot be lipidated, and can be used as an internal reference to produce ratiometric values reporting autophagic flux. The lipidated GFP-LC3 protein becomes incorporated into the membrane of autophagosomes, and upon fusion with lysosomes, is degraded. Consequently, cells with a high autophagic flux have less GFP-LC3, whereas a low autophagic flux results in a relatively higher intracellular amount of GFP-LC3.
Reporter cells were grown as sub-confluent cultures and test compounds were applied at various concentrations. Thapsigargin, a known inducer of autophagy, was used as a positive control. After 24 hours of treatment, a single-cell suspension was prepared by trypsinization, and the GFP fluorescence determined by flow cytometry. A minimum of 10,000 single cells were evaluated for each condition.

Panc02 and SKOV3 cells [4] = assay: Lactate production inhibition assay (FIGS. 8C and 8D); conditions: 48 hours treatment, 1.5 to 10000 nM
Description: Recombinant Lactate Dehydrogenase A (LDHA) was used to convert lactate in tissue culture supernatants to pyruvate, with the concomitant reduction of NAD^+ to NADH. The electron acceptor 1-methoxyphenazine methosulfate (MPMS) was then reduced by the generated NADH, thereby regenerating NAD+. Reduced 1-methoxyphenazine methosulfate is used in turn to reduce Water Soluble Tetrazolium 8 (WST8) to an orange WST8 formazan product. The assay is adapted from the publication “Application of WST-8 based colorimetric NAD(P)H detection for quantitative dehydrogenase assays” described in Chamchoy et al., BMC Biochemistry (2019) 20(1):4.
Cells were plated at 4,000 per well in 96-well plate in a medium of high glucose DMEM (PAN) supplemented with 10% FBS (PAN), 2 mM glutamine-alanine (PAN), 2 mM pyruvate (Sigma) and 10 mL/L penicillin-streptomycin (PAN) and grown at 37° C. in 0.5% O2, 5% CO2 and 75% humidity. For hypoxia, cells were grown and treated in the Whitley H35 Hypoxystation (Don Whitley Scientific) at 37° C. in 0.5% O2, 5% CO2 and 75% humidity. The next day, cells were induced with test compounds (FIG. 2: compounds of examples 3/16, 3/8, 10 at 10000, 3333, 1111, 370, 123, 41, 14, 5 and 1.5 nM; FIG. 7: compounds of examples 3/16, 3/8, 10 at 41, 14, 4.6 nM and Phenformin at 100, 50, 25, 12.5, 6.25 μM; FIGS. 8C and 8D: compounds of example 3/16, 3/8, 10, 3/19, 30 and 30/2 at 10000, 3333, 1111, 370, 123, 41, 14, 5 and 1.5 nM), as well as with vehicle (DMSO) only, for 48 hours. After this time, the medium was removed from the cells to measure extracellular lactate. To detect extracellular lactate, cell supernatants are diluted 1:5 in assay buffer (0.2 M tris, pH 8.2) by adding 10 μl cell supernatant+40 μl buffer in a 96-well plate. Assay substrate mix is prepared by adding NAD+ (3.75 mM), WST-8 (0.9 mM), MPMS (10 mM) and recombinant LDHA, expressed in E. coli as an N-terminal hexahistidine tagged fusion protein, is added to a final concentration of 0.8 μg/ml in assay buffer. Thereafter, 80 μl of substrate mix is added to 20 μl of diluted cell supernatant in a 96-well flat-bottomed plate and the absorbance at 460 nm determined at one minute intervals over a 30 minute period. A standard curve of known lactate concentrations of 10, 8, 6, 4, 1, 0.5 and 0.25 mM was constructed for each assay plate.

SMILES | ATP production level (Panc02 and SKOV3 cells [1]) | ATP production level [2] | autophagic flux [3] | lactate levels (Panc02 and SKOV3 cells [4])
O=C(Nc1ccc(F)c(NC(=O)c2cc3ccc(OCCCN4CCCC4)cc3s2)c1)c1ccc2c(c1)OCCO2 [3/8] | dose-dependent reduction | dose-dependent reduction | significantly enhance | dose-dependent downregulation
Cc1ccc(NC(=O)c2ccc3c(c2)OCCO3)cc1NC(=O)c1cc2cccnc2s1 [3/16] | dose-dependent reduction | dose-dependent reduction | significantly enhance | dose-dependent downregulation
